Experiments:
[1] = 100 kPa, Liquid, Capillary tube (Ostwald / Ubbelohde) method
[2] = xn = mol fraction of the nth substance listed; settings: 100 kPa, Liquid; for thermal conductivity: Hot wire method

OCCO [1,2-ethanediol]
[1]
Settings | viscosity [mPa·s]
295.55 K | 19.1
313.05 K | 9.74
333.1 K | 5.24
353.05 K | 3.13
372.15 K | 2.06
392.45 K | 1.44
412.25 K | 1.07
428.3 K | 0.867

OCCO [1,2-ethanediol] + O
[2]
Settings | mass density [kg/m3] | thermal conductivity [W/m/K] | viscosity [mPa·s]
296.4 K, x1 = 0.25 | 1068 | – | –
296.45 K, x1 = 0.25 | – | – | 3.69
297.05 K, x1 = 0.5 | 1094 | – | 7.61
297.35 K, x1 = 0.75 | 1106 | – | 12.3
298.5 K, x1 = 0.75 | – | 0.269 | –
303.4 K, x1 = 0.25 | – | 0.391 | –
312.3 K, x1 = 0.5 | – | 0.316 | –
313.05 K, x1 = 0.25 | 1058 | – | 2.29
313.05 K, x1 = 0.5 | 1083 | – | 4.49
313.05 K, x1 = 0.75 | 1094 | – | 6.97
323.6 K, x1 = 0.25 | – | 0.4 | –
324.2 K, x1 = 0.75 | – | 0.272 | –
324.4 K, x1 = 0.5 | – | 0.314 | –
333.05 K, x1 = 0.25 | 1045 | – | 1.47
333.1 K, x1 = 0.5 | 1069 | – | 2.62
333.1 K, x1 = 0.75 | 1080 | – | 3.88
347.5 K, x1 = 0.75 | – | 0.277 | –
347.7 K, x1 = 0.5 | – | 0.324 | –
348.6 K, x1 = 0.25 | – | 0.416 | –
353.05 K, x1 = 0.25 | 1030 | – | 0.99
353.05 K, x1 = 0.5 | 1054 | – | 1.7
353.05 K, x1 = 0.75 | 1065 | – | 2.42
371.9 K, x1 = 0.75 | – | 0.281 | –
372 K, x1 = 0.25 | – | 0.423 | –
372.8 K, x1 = 0.5 | – | 0.33 | –
373.45 K, x1 = 0.75 | 1049 | – | 1.62
374.85 K, x1 = 0.25 | 1013 | – | –
376.05 K, x1 = 0.5 | 1035 | – | –
378.85 K, x1 = 0.25 | – | – | 0.689
380.05 K, x1 = 0.5 | – | – | 1.07
383.35 K, x1 = 0.75 | 1041 | – | 1.37
390.25 K, x1 = 0.5 | 1023 | – | –
393.2 K, x1 = 0.75 | 1033 | – | 1.18
394.25 K, x1 = 0.5 | – | – | 0.87
395.9 K, x1 = 0.25 | – | 0.428 | –
396.8 K, x1 = 0.75 | – | 0.28 | –
396.95 K, x1 = 0.25 | 995.5 | – | –
397 K, x1 = 0.5 | – | 0.332 | –
400.95 K, x1 = 0.25 | – | – | 0.518
403.15 K, x1 = 0.75 | 1025 | – | 1.02
404.75 K, x1 = 0.75 | 1023 | – | –
406.05 K, x1 = 0.5 | 1010 | – | –
407.75 K, x1 = 0.75 | – | – | 0.978
410.05 K, x1 = 0.5 | – | – | 0.706
413.15 K, x1 = 0.75 | 1016 | – | 0.903
417.15 K, x1 = 0.25 | 977.4 | – | –
418.35 K, x1 = 0.75 | 1012 | – | –
419.9 K, x1 = 0.75 | – | 0.279 | –
421 K, x1 = 0.25 | – | 0.432 | –
421.15 K, x1 = 0.25 | – | – | 0.418
421.7 K, x1 = 0.5 | – | 0.32 | –
422.35 K, x1 = 0.75 | – | – | 0.806
423.55 K, x1 = 0.5 | 994.5 | – | –
427.55 K, x1 = 0.5 | – | – | 0.573
431.55 K, x1 = 0.25 | 964.9 | – | –
431.95 K, x1 = 0.75 | 1000 | – | –
435.55 K, x1 = 0.25 | – | – | 0.366
435.95 K, x1 = 0.75 | – | – | 0.691
436.65 K, x1 = 0.5 | 982.5 | – | –
440.65 K, x1 = 0.5 | – | – | 0.5
441.6 K, x1 = 0.75 | – | 0.276 | –
445.85 K, x1 = 0.75 | 987 | – | –
449.85 K, x1 = 0.75 | – | – | 0.594

OCCOCCO [diethylene glycol]
[1]
Settings | viscosity [mPa·s]
294.2 K | 35.1
313.05 K | 15.1
333.05 K | 7.64
353.05 K | 4.41
373.6 K | 2.76
393.4 K | 1.92
413.25 K | 1.41
428.15 K | 1.15

Reference: the NIST ThermoML archive (doi:10.1021/je025610o)
